Assay results as given in patent US8772500B2, “TRPV3 modulators” (AbbVie Inc., priority 2011, dated 2014).

Key:
[1] = In vitro human microsomal stability assay; type: in vitro ADME; details: for HUMAN MICROSOMAL STABILITY (% REMAINING AFTER 30 MINUTES): 0.5 h, 0.5 μM, pH 7.4
In short: (§1)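 Metabolic stability is assessed by incubating test compound with liver microsomes at 37 °C in the presence of NADPH. Rat assays use Sprague-Dawley microsomes, while human assays use human microsomes.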

human TRPV3 = target: T1, human TRPV3 (Homo sapiens, UniProt Q8NET8); test: In vitro antagonism of recombinant human TRPV3 activation (FLIPR Tetra calcium assay, 2-APB as agonist); type: cell-based; details: HEK293 cells stably expressing human TRPV3; 2-APB 80 μM; range class; read-out: IC50 (reported range)
T1 construct: expressed in transfected cells
T1 sequence (Q8NET8 1-790): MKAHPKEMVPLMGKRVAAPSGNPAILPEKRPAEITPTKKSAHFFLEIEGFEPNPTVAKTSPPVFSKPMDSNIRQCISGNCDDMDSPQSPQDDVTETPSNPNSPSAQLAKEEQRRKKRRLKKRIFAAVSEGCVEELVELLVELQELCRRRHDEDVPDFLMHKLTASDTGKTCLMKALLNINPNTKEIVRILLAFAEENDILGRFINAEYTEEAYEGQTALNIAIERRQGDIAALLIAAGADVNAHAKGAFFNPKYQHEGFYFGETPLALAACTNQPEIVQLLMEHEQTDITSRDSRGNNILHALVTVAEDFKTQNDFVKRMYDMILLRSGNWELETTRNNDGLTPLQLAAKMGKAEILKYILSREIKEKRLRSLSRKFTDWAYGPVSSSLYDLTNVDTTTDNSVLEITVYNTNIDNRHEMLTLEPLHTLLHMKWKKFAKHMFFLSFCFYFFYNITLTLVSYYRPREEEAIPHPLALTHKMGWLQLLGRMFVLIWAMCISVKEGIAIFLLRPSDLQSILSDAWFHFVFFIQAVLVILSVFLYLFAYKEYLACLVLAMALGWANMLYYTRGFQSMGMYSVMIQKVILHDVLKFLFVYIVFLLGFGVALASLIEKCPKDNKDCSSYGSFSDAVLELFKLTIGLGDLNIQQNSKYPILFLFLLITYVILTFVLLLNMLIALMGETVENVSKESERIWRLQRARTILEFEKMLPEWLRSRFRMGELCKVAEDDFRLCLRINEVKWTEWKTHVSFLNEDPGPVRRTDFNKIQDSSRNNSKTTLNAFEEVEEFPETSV
In short: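 Readout is FLIPR fluorescence, max minus min as percent of uninhibited 2-APB response, giving IC50 (usually mean of ≥2 runs). Stable human TRPV3 HEK293 cells, Calcium-4 dye-loaded, got test compound then, three minutes later, 80 μM 2-APB (EC80); run length 10 min.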

[2] = In vitro rat microsomal stability assay; type: in vitro ADME, rat (Sprague-Dawley); details: for RAT MICROSOMAL STABILITY (% REMAINING AFTER 30 MINUTES): Sprague-Dawley, 0.5 h, 0.5 μM, pH 7.4
In short: as §1

[3] = 0.5 μM substrate, 0.25 mg/mL microsomal protein, pH 7.4, 37° C., NADPH, 30 minutes

## OC(c1ccccn1)C1(c2ccccc2OC(F)(F)F)CCC1 (stereo not drawn) [Example 10, pyridin-2-yl{1-[2-(trifluoromethoxy)phenyl]cyclobutyl}methanol]
[1]
  HUMAN MICROSOMAL STABILITY (% REMAINING AFTER 30 MINUTES): 0.42%
Human TRPV3
  IC50: 1100 to 5000 nM
[2]
  RAT MICROSOMAL STABILITY (% REMAINING AFTER 30 MINUTES): 0.62%

## OC(CC1(c2cccc(C(F)(F)F)c2)CCC1)c1ccccn1 (stereo not drawn) [Example 74, 1-(pyridin-2-yl)-2-{1-[3-(trifluoromethyl)phenyl]cyclobutyl}ethanol]
[1]
  HUMAN MICROSOMAL STABILITY (% REMAINING AFTER 30 MINUTES): 6.8%
Human TRPV3
  IC50: 50 to 500 nM
[2]
  RAT MICROSOMAL STABILITY (% REMAINING AFTER 30 MINUTES): 0.45%

## CC(C)(C)OC(=O)N1CCC(C2(C(O)c3ccccn3)CCC2)C1 (stereo not drawn) [Example 265, tert-butyl 3-{1-[hydroxy(pyridin-2-yl)methyl]cyclobutyl}pyrrolidine-1-carboxylate]
[1]
  HUMAN MICROSOMAL STABILITY (% REMAINING AFTER 30 MINUTES): 43%
Human TRPV3
  IC50: 5100 to 20000 nM
[2]
  RAT MICROSOMAL STABILITY (% REMAINING AFTER 30 MINUTES): 0.059%

## OC(CC1(c2cccc(OC(F)(F)F)c2)CCC1)c1ccccn1 (stereo not drawn) [Example 77, 1-(pyridin-2-yl)-2-{1-[3-(trifluoromethoxy)phenyl]cyclobutyl}ethanol]
[1]
  HUMAN MICROSOMAL STABILITY (% REMAINING AFTER 30 MINUTES): 11%
Human TRPV3
  IC50: 501 to 1000 nM
[2]
  RAT MICROSOMAL STABILITY (% REMAINING AFTER 30 MINUTES): 0.94%

## CC1(O)CC(c2ccc(C(F)(F)F)cc2)([C@H](O)c2ccccn2)C1 (stereo in doubt) [Example 233, trans-3-[(S)-hydroxy(pyridin-2-yl)methyl]-1-methyl-3-[4-(trifluoromethyl)-phenyl]cyclobutanol]
[1]; [3]
  HUMAN […] (% REMAINING AFTER 30 MINUTES): >85%
Human TRPV3
  IC50: 5100 to 20000 nM
[2]; [3]
  RAT […] (% REMAINING AFTER 30 MINUTES): 67%

## OC(c1ccccn1)C1(c2cccc(Cl)c2)CCCO1 (stereo not drawn) [Example 104, (anti)-[2-(3-chlorophenyl)tetrahydrofuran-2-yl](pyridin-2-yl)methanol]
[1]
  HUMAN MICROSOMAL STABILITY (% REMAINING AFTER 30 MINUTES): 15%
Human TRPV3
  IC50: 50 to 500 nM
[2]
  RAT MICROSOMAL STABILITY (% REMAINING AFTER 30 MINUTES): 0.42%

## O[C@H](c1ccccn1)C1(c2cc(C(F)(F)F)ccn2)CCC1 [Example 123, (S)-pyridin-2-yl{1-[4-(trifluoromethyl)pyridin-2-yl]cyclobutyl}methanol]
[1]
  HUMAN MICROSOMAL STABILITY (% REMAINING AFTER 30 MINUTES): 21%
Human TRPV3
  IC50: 50 to 500 nM
[2]
  RAT MICROSOMAL STABILITY (% REMAINING AFTER 30 MINUTES): 11%

## OC(c1ccccn1)C1(c2cccc(C(F)(F)F)c2)CCCO1 (stereo not drawn) [Example 107, (syn)-pyridin-2-yl{2-[3-(trifluoromethyl)phenyl]tetrahydrofuran-2-yl}-methanol]
[1]
  HUMAN MICROSOMAL STABILITY (% REMAINING AFTER 30 MINUTES): 31%
Human TRPV3
  IC50: 1100 to 5000 nM
[2]
  RAT MICROSOMAL STABILITY (% REMAINING AFTER 30 MINUTES): 0.23%

## Cc1cccc(C2(C(O)c3ccccn3)CCCO2)c1 (stereo not drawn) [Example 91, [2-(3-methylphenyl)tetrahydrofuran-2-yl](pyridin-2-yl)methanol]
[1]
  HUMAN MICROSOMAL STABILITY (% REMAINING AFTER 30 MINUTES): 46%
Human TRPV3
  IC50: 50 to 500 nM
[2]
  RAT MICROSOMAL STABILITY (% REMAINING AFTER 30 MINUTES): 1.0%

## O[C@H](c1ncccn1)C1(c2ccc(Cl)c(Cl)c2)CCC1 [Example 39, (S)-[1-(3,4-dichlorophenyl)cyclobutyl](pyrimidin-2-yl)methanol]
[1]
  HUMAN MICROSOMAL STABILITY (% REMAINING AFTER 30 MINUTES): 51%
Human TRPV3
  IC50: 501 to 1000 nM
[2]
  RAT MICROSOMAL STABILITY (% REMAINING AFTER 30 MINUTES): 11%

## N[C@@H]1CCC[C@@H]1[C@@H](O)C1(c2ccc(OC(F)(F)F)cc2)CCC1 [Example 221, (R)-[(1S,2R)-2-aminocyclopentyl]{1-[4-(trifluoromethoxy)phenyl]-cyclobutyl}methanol]
[1]
  HUMAN MICROSOMAL STABILITY (% REMAINING AFTER 30 MINUTES): 83%
Human TRPV3
  IC50: 1100 to 5000 nM
[2]
  RAT MICROSOMAL STABILITY (% REMAINING AFTER 30 MINUTES): 56%

## O[C@H](c1ccccn1)[C@@]1(c2ccc(Cl)c(Cl)c2)CCO1 [Example 135, (R)-[(2S)-2-(3,4-dichlorophenyl)oxetan-2-yl](pyridin-2-yl)methanol]
[1]
  HUMAN MICROSOMAL STABILITY (% REMAINING AFTER 30 MINUTES): 33%
Human TRPV3
  IC50: 501 to 1000 nM
[2]
  RAT MICROSOMAL STABILITY (% REMAINING AFTER 30 MINUTES): 3.4%

## CC(C)(C)OC(=O)N1CCC(C2(C(O)c3ccccn3)CCC2)CC1 (stereo not drawn) [Example 279, tert-butyl 4-{1-[hydroxy(pyridin-2-yl)methyl]cyclobutyl}piperidine-1-carboxylate]
[1]
  HUMAN MICROSOMAL STABILITY (% REMAINING AFTER 30 MINUTES): 22%
Human TRPV3
  IC50: 5100 to 20000 nM
[2]
  RAT MICROSOMAL STABILITY (% REMAINING AFTER 30 MINUTES): <0.01%
